Data reported in US20250147039A1, “Compounds for complexation of rare earth elements and/or s-, p-, d- block metals, their coordination compounds, peptide conjugates, method of their preparation and use thereof” (USTAV ORGANICKE CHEMIE A BIOCHEMIE AV CR V.V.I., priority 2021, published 2025).

Columns and labels:
[1] = Formation of 1,5-cz-[M(Lig)] from Lig and M^III ions (metal dependent click-zip) (Charts 4, 5); assay type: physicochemical; conditions: MOPS/NaOH buffer pH 7.0, TD728, TD827 in 50% i-PrOH; for conversion to 1,5-cz-[M(Lig)], Y^III: TD714 sum of two diastereoisomers
[2] = Formation of 1,5-cz-[Ln(Lig)] from Lig and Ln^III ions (metal dependent click-zip), MOPS/NaOH buffer pH 7.0, analytical HPLC (Charts 1, 2); conditions: MOPS/NaOH buffer pH 7.0

| Compound | conversion to 1,5-cz-[M(Lig)], Sc^III ([1]; 1 week at 80° C.) [%] | conversion to 1,5-cz-[M(Lig)], Y^III ([1]; 1 week at 80° C.) [%] | conversion to 1,5-cz-[M(Lig)], Sc^III ([1]; 1 hour at 80° C.) [%] | conversion to 1,5-cz-[M(Lig)], Y^III ([1]; 1 hour at 80° C.) [%] | conversion to 1,5-cz-[Ln(Lig)], Ce^III ([2]; after 1 week at 80° C.) [%] | conversion to 1,5-cz-[Ln(Lig)], Ce^III ([2]; after 1 hour at 80° C.) [%] | conversion to 1,5-cz-[Ln(Lig)], Dy^III ([2]; after 1 week at 80° C.) [%] | conversion to 1,5-cz-[Ln(Lig)], Dy^III ([2]; after 1 hour at 80° C.) [%] | conversion to 1,5-cz-[Ln(Lig)], Er^III ([2]; after 1 week at 80° C.) [%] | conversion to 1,5-cz-[Ln(Lig)], Er^III ([2]; after 1 hour at 80° C.) [%] | conversion to 1,5-cz-[Ln(Lig)], Eu^III ([2]; after 1 week at 80° C.) [%] | conversion to 1,5-cz-[Ln(Lig)], Eu^III ([2]; after 1 hour at 80° C.) [%] | conversion to 1,5-cz-[Ln(Lig)], Gd^III ([2]; after 1 week at 80° C.) [%] | conversion to 1,5-cz-[Ln(Lig)], Gd^III ([2]; after 1 hour at 80° C.) [%] | conversion to 1,5-cz-[Ln(Lig)], Ho^III ([2]; after 1 week at 80° C.) [%] | conversion to 1,5-cz-[Ln(Lig)], Ho^III ([2]; after 1 hour at 80° C.) [%] | conversion to 1,5-cz-[Ln(Lig)], La^III ([2]; after 1 week at 80° C.) [%] | conversion to 1,5-cz-[Ln(Lig)], La^III ([2]; after 1 hour at 80° C.) [%] | conversion to 1,5-cz-[Ln(Lig)], Lu^III ([2]; after 1 week at 80° C.) [%] | conversion to 1,5-cz-[Ln(Lig)], Lu^III ([2]; after 1 hour at 80° C.) [%] | also measured |
| --- | --- | --- | --- | --- | --- | --- | --- | --- | --- | --- | --- | --- | --- | --- | --- | --- | --- | --- | --- | --- | --- |
| [N-]=[N+]=NCc1cccc(CN2CCN(CC(=O)O)CCN(Cc3cccc(C#CC45CC6CC(CC(C6)C4)C5)n3)CCN(CC(=O)O)CC2)n1 [TD992] | 2 | 87 | 0 | 2 | 20 | 0 | 81 | 1 | 95 | 2 | 59 | 1 | 61 | 1 | 89 | 2 | 22 | 0 | 99 | 6 | conversion to 1,5-cz-[Ln(Lig)], Nd^III ([2]; after 1 week at 80° C.): 40%; conversion to 1,5-cz-[Ln(Lig)], Nd^III ([2]; after 1 hour at 80° C.): 0%; conversion to 1,5-cz-[Ln(Lig)], Pr^III ([2]; after 1 week at 80° C.): 33%; conversion to 1,5-cz-[Ln(Lig)], Pr^III ([2]; after 1 hour at 80° C.): 0%; conversion to 1,5-cz-[Ln(Lig)], Sm^III ([2]; after 1 week at 80° C.): 55%; conversion to 1,5-cz-[Ln(Lig)], Sm^III ([2]; after 1 hour at 80° C.): 1%; conversion to 1,5-cz-[Ln(Lig)], Tb^III ([2]; after 1 week at 80° C.): 73%; conversion to 1,5-cz-[Ln(Lig)], Tb^III ([2]; after 1 hour at 80° C.): 1%; conversion to 1,5-cz-[Ln(Lig)], Tm^III ([2]; after 1 week at 80° C.): 98%; conversion to 1,5-cz-[Ln(Lig)], Tm^III ([2]; after 1 hour at 80° C.): 4%; conversion to 1,5-cz-[Ln(Lig)], Yb^III ([2]; after 1 week at 80° C.): 99%; conversion to 1,5-cz-[Ln(Lig)], Yb^III ([2]; after 1 hour at 80° C.): 5% |
| CC(C)(N)C#Cc1cccc(CN2CCN(CC(=O)O)CCN(Cc3cc(-c4ccccc4)cc(CN=[N+]=[N-])n3)CCN(CC(=O)O)CC2)n1 [TD1054] | 61 | 80 | 4 | 16 | 4 | 0 | 70 | 10 | 88 | 26 | 28 | 3 | 33 | 3 | 79 | 16 | 4 | 0 | 98 | 63 | conversion to 1,5-cz-[Ln(Lig)], Nd^III ([2]; after 1 week at 80° C.): 11%; conversion to 1,5-cz-[Ln(Lig)], Nd^III ([2]; after 1 hour at 80° C.): 1%; conversion to 1,5-cz-[Ln(Lig)], Pr^III ([2]; after 1 week at 80° C.): 10%; conversion to 1,5-cz-[Ln(Lig)], Pr^III ([2]; after 1 hour at 80° C.): 0%; conversion to 1,5-cz-[Ln(Lig)], Sm^III ([2]; after 1 week at 80° C.): 22%; conversion to 1,5-cz-[Ln(Lig)], Sm^III ([2]; after 1 hour at 80° C.): 2%; conversion to 1,5-cz-[Ln(Lig)], Tb^III ([2]; after 1 week at 80° C.): 55%; conversion to 1,5-cz-[Ln(Lig)], Tb^III ([2]; after 1 hour at 80° C.): 6%; conversion to 1,5-cz-[Ln(Lig)], Tm^III ([2]; after 1 week at 80° C.): 94%; conversion to 1,5-cz-[Ln(Lig)], Tm^III ([2]; after 1 hour at 80° C.): 39%; conversion to 1,5-cz-[Ln(Lig)], Yb^III ([2]; after 1 week at 80° C.): 97%; conversion to 1,5-cz-[Ln(Lig)], Yb^III ([2]; after 1 hour at 80° C.): 53% |
| C#Cc1cccc(CN2CCN(CC(=O)O)CCN(Cc3cc(C(F)(F)F)cc(CN=[N+]=[N-])n3)CCN(CC(=O)O)CC2)n1 [TD1063] | 8 | 91 | 1 | 20 | 1 | 1 | 86 | 15 | 93 | 33 | 73 | 4 | 74 | 5 | 90 | 22 | 5 | 0 | 95 | 54 | conversion to 1,5-cz-[Ln(Lig)], Nd^III ([2]; after 1 week at 80° C.): 52%; conversion to 1,5-cz-[Ln(Lig)], Nd^III ([2]; after 1 hour at 80° C.): 2%; conversion to 1,5-cz-[Ln(Lig)], Pr^III ([2]; after 1 week at 80° C.): 35%; conversion to 1,5-cz-[Ln(Lig)], Pr^III ([2]; after 1 hour at 80° C.): 1%; conversion to 1,5-cz-[Ln(Lig)], Sm^III ([2]; after 1 week at 80° C.): 57%; conversion to 1,5-cz-[Ln(Lig)], Sm^III ([2]; after 1 hour at 80° C.): 3%; conversion to 1,5-cz-[Ln(Lig)], Tb^III ([2]; after 1 week at 80° C.): 83%; conversion to 1,5-cz-[Ln(Lig)], Tb^III ([2]; after 1 hour at 80° C.): 10%; conversion to 1,5-cz-[Ln(Lig)], Tm^III ([2]; after 1 week at 80° C.): 93%; conversion to 1,5-cz-[Ln(Lig)], Tm^III ([2]; after 1 hour at 80° C.): 45%; conversion to 1,5-cz-[Ln(Lig)], Yb^III ([2]; after 1 week at 80° C.): 95%; conversion to 1,5-cz-[Ln(Lig)], Yb^III ([2]; after 1 hour at 80° C.): 53% |
